Laboratory results from patent US20160346320A1, “SUBSTANCE FOR INHIBITING TISSUE CALCIFICATION, TISSUE FIBROSATION AND AGE-RELATED DISEASES” (Fresenius Kabi Deutschland GmbH, priority 2013, published 2016).
“Also recorded” adds a separate entry of the source.

Tests used:
[1] = tested on: TGFβ1 mRNA; assay type: cell-based, human
[2] = growth and body weight of klotho mice; assay type: in vivo; conditions: for body weight / growth deficit: NH4Cl 0.28 M or acetazolamide 800 mg/l in drinking water
[3] = blood chemistry: plasma concentrations in klotho mice; assay type: in vivo; conditions: NH4Cl 0.28 M or acetazolamide 800 mg/l in drinking water
[4] = tested on: NFAT5; experiment: NFAT5 expression in HAoSMCs, quantitative RT-PCR; assay type: cell-based, human; conditions: NH4Cl 500 μM
Method: (§1) The following experimental studies were executed: Primary human aortic smooth muscle cells (HAoSMCs, Invitrogen) were cultivated in Waymouth's MB 752/1 medium and Ham's F12 nutrient mixture (1:1, Gibco, Life Technologies) with the addition of 10% FBS (Gibco, Life Technologies). In all experiments, confluent HAoSMCs, passages 4 to 11, were used. The cells were treated for 24 hours with 2 mM β-glycerophosphate (Sigma-Aldrich) with or without simultaneous addition of 0.5 mM ammonium salts or 100 μM chloroquine diphosphate (Sigma-Aldrich). Quantitative RT-PCR (real time polymerase chain reaction) were carried out, as described previously (Voelkl, J., Alesutan, I., Leibrock, C. B., Quintanilla-Martinez, L., Kuhn, V., Feger, M., Mia, S., Ahmed, M. S., Rosenblatt, K. P., Kuro, O., Lang, F.: Spironolactone ameliorates PIT1-dependent vascular osteoinduction in klotho-hypomorphic mice. J. Clin Invest 2013; February 1; 123(2):812-22). For this, HAoSMCs were washed and total RNA were isolated using Trifast reagent (Peqlab) according to the directions from the manufacture. […] The total RNA were likewise isolated with Trifast reagent (Peqlab) in accordance with the directions from the manufacture. In each case, 2 μg RNA of the human as well as the murine samples were used for the reverse transcription of the RNA with oligo(dT)12-18 primers (Invitrogen) and SuperScripIII Reverse Transcriptase (Invitrogen). Quantitative real-time PCR were carried out with an iCycler iQ™ Real-Time PCR Detection System (Bio-Rad Laboratories) and iQ™ Sybr Green Supermix (Bio-Rad Laboratories) according to the manufacturer's instructions. The following primers were used (5′ orientation): […]
(§2) The specificity of the PCR products was checked by means of melting curve analysis and agarose gel electrophoresis. All PCRs were each carried out twice, and the multiple mRNA quantities were calculated by means of the […] methods with GAPDH as the internal reference.

[5] = tested on: Runx2 mRNA; assay type: cell-based, human
[6] = tested on: NFAT5; experiment: NFAT5 expression in aortas of klotho mice; assay type: in vivo; conditions: NH4Cl 0.28 M in drinking water
[7] = tested on: SOX9; experiment: SOX9 expression in HAoSMCs, quantitative RT-PCR; assay type: cell-based, human; conditions: NH4Cl 500 μM
Method: as §1, §2

[8] = tested on: alkaline phosphatase (ALP) mRNA; assay type: cell-based, human
[9] = HAoSMCs transfected with NFAT5, 2 mM β-glycerophosphate
[10] = HAoSMCs transfected with empty vectors, 2 mM β-glycerophosphate
[11] = HAoSMCs, 2 mM β-glycerophosphate

Compound	TGFβ1 mRNA expression increase [1]	body weight [2]	growth deficit [2]	Runx2 mRNA expression increase [5]	ALP mRNA expression increase [8]	further results
CC(O)C(=O)O.N (stereo not shown) [ammonium lactate, Ammonium lactate]	inhibit the formation of TGFβ1; also recorded: lessened					
CC(=O)Nc1nnc(S(N)(=O)=O)s1 [acetazolamide]		could be increased	could not be fully compensated			concentration of matrix gla protein (MGP) in plasma [3]: fully normalize
Cl.N [ammonium chloride, Ammonium chloride]	inhibit the formation of TGFβ1; also recorded: prevented	nearly entirely neutralize the weight deficiency	nearly entirely neutralized	inhibit the expression; also recorded: suppressed	reduce the expression; also recorded: suppression of the expression increase	growth ([2]; wild mice (klotho^+/+), NH4Cl 0.28 M in drinking water): no growth stimulation; expression of NFAT5 [4, 9]: remained high; expression of NFAT5 [4, 10]: sink back to a normal level; transcription level of NFAT5 [4, 11]: reduced the expression; also recorded: reverse the increase; expression of NFAT5 in aortas [6]: normalization of the transcription level; expression of SOX9 [7, 9]: prevents the effect of NH4Cl; also recorded: remained high; expression of SOX9 [7, 10]: sink back to a normal level; transcription level of SOX9 [7, 11]: reduced the expression
N.N.O=S(=O)(O)O [ammonium sulfate, Ammonium sulfate]	inhibit the formation of TGFβ1; also recorded: lessened			inhibit the expression; also recorded: suppressed	reduce the expression; also recorded: suppression of the expression increase	
CCN(CC)CCCC(C)Nc1ccnc2cc(Cl)ccc12 (racemic) [chloroquine, (RS)—N′-(7-chloroquinoline-4-yl)-N,N-diethyl-pentane-1,4-diamine]					reduce the expression; also recorded: suppression of the ALP mRNA expression increase	
Ammonium citrate	inhibit the formation of TGFβ1; also recorded: lessened					
